Assays:
Type in all cases: cell-based
Human fibroblasts IMR90 [1] = experiment: Generation of GFP+ irNSC neurospheres, Fasudil versus Balanol-like-324 compound in induction medium (FIG. 11)
Protocol: FIG. 11: Comparison of Fasudil versus Balanol-like-324 compound stimulation to generate irNSC neurospheres. Human fibroblasts IMR90 were trypsinized and infected in a small volume with: Sox2, Bmi1, nestin GFP reporter using the induction medium (NeuroCult® NS-A Proliferation Kit (Human, StemCells Technologies) with FGF, EGF BDNF 20 ng/ml; Heparin 2 μg/ml; Polybrene 4 μg/ml) supplemented with Fasudil 10 μM (hatched graph) or Balanol-like-324 compound 2 μM (black graph). Fibroblasts were plated in a normal tissue culture plate at a concentration of 10000-30000 cells/cm^2. Day 1: Media change with fresh induction medium. Day 4: The GFP+ neurospheres bigger than 50 μm were counted.
Induction Medium: N2B27 (N2B27 is a 1:1 mixture of DMEM/F12 (Gibco, Paisley, UK) supplemented with N2 and B27 (both from Gibco) supplemented with human EGF (Peprotech) 30 ng/ml, human FGF2 30 ng/ml (Peprotech), human BDNF (Roche) 20 ng/ml and Fasudil (Calbiochem) 10 μM or Balanol-like-324 compound (N-{(3R,4R)-4-[4-(2-Fluoro-6-hydroxy-3-methoxy-benzoyl)-benzoylamino]-azepan-3-yl}-4-hydroxy-3,5-dimethyl-benzamide) 2 μM.
1. Generation of the irNSCs: • 200.000 IMR90 human fibroblasts infected with the lentiviruses for different genes combination (multiplicity of infection (M.O.I.) used for each single lentivirus 30) and the reporter nestin GFP lentivirus (M.O.I. used 10) in an eppendorf with 300 μl induction medium with polybrene (hexadimethrine bromide, Sigma) 4 μg/ml. • Incubate at room temperature for 15 min. • Plate the 300 μl in 1.7 ml induction medium in a well of a 6-well-plate tissue treated • Day 1, renew the 2 ml of induction medium/each well • Day 3, harvest of the neurospheres collecting carefully the 2 ml with the floating spheres • Expand the neurospheres2. […]

[2] = test system: irNSC neurospheres from human fibroblasts IMR90; experiment: Expansion of irNSC neurospheres with or without Fasudil in expansion medium (FIG. 9); details: expansion medium with Fasudil vs without; Day 15
Protocol: FIG. 9: Generation of a batch of irNSC neurospheres for expansion and characterization. 3.6 million human fibroblasts IMR90 were trypsinized and infected in a small volume with: Sox2, Bmi1, nestin GFP reporter using the induction medium (N2B27 with FGF, EGF 30 ng/ml BDNF 20 ng/ml) supplemented with Fasudil 10 μM and Polybrene 4 μg/ml. From Day 4 to Day 8: The GFP+ neurospheres bigger than 50 μm were harvested and further used for expansion. Half of the neurospheres have been expanded using the expansion medium (N2B27 with FGF, EGF 30 ng/ml BDNF 20 ng/ml) with Fasudil and the other half without Fasudil.
The irNSCs have a typical NSC morphology and were Sox2 and Nestin positive (FIG. 10).
Expansion Medium: N2B27 supplemented with human EGF (Peprotech) 30 ng/ml, human FGF2 30 ng/ml (Peprotech), human BDNF (Roche) 20 ng/ml, or
1. […]

human fibroblasts = experiment: Reprogramming of human fibroblasts to irNSCs with or without Fasudil in induction medium, neurosphere count (FIG. 6); details: Fasudil added to induction medium, nestin reporter lentivirus; day 3
Description: The method can be illustrated by reference to FIG. 1 herein, which depicts a method according to the invention being used for converting human fibroblasts to neural stem cells (NSCs). In this method human fibroblast were trypsinized at day 0, counted and their viability determined. Between 1.0×10^5-3.0×10^5 trypsinized fibroblasts were then resuspended in the induction medium and the combination of genes delivered as lentiviruses. At the induction medium polybrene (hexadimethrine bromide) was added to increase the efficiency of the lentiviruses transduction. The infection was performed for 15 minutes in an eppendorf tube. In combination with the genes, a human Nestin GFP reporter was used. Nestin is a well known marker expressed specifically in NSCs. In the nestin reporter the fluorescent protein GFP is under expression of the human nestin promoter (FIG. 2), therefore it allows an easy screen for induced reprogrammed neural stem cells (irNSCs) GFP+.
The infected cells were plated in tissue culture plates using a concentration of 10000-30000 cells/cm^2 in the appropriate volume of induction medium. At day 1 the total induction medium was renewed. It was possible to identify some irNSC GFP+ (FIG. 3) with a clear change in morphology compared to the human fibroblasts. The irNSCs GFP+ acquired a bipolar and elongated morphology with a more condensed cytoplasm, typical of NSCs. […]

Human fibroblasts IMR90 [3] = experiment: Pre-treatment of human fibroblasts with Valproic Acid before infection, yield of GFP+ irNSC neurospheres (FIG. 12); details: VPA 1 mM pre-treatment 48 hours vs without; Day 7; n=3
Protocol: FIG. 12: Pre-treatment of human fibroblasts with Valproic Acid (VPA) improves the yield of GFP+ irNSC neurospheres. Human fibroblasts IMR90 were pre-treated for 48 hours with or without the HDAC inhibitor Valproic Acid (2-propyl-pentanoic acid, monosodium salt) (1 mM) prior infection with: Sox2, Bmi1, nestin GFP reporter. Induction medium (NeuroCult® NS-A Proliferation Kit (Human, StemCells Technologies) with FGF, EGF BDNF 20 ng/ml; Heparin 2 μg/ml; Balanol-like-324 2 μM). Day 7: The Neurospheres bigger than 50 μm were counted (Panel A) and the average number of GFP+ irNSC per neurosphere is reported (Panel B). Representative pictures for the irNSCs neuropheres generated with the VPA pre-treatment (Panel C).
To increase the yield of irNSCs, human fibroblasts were pretreated with or without the HDAC inhibitor Valproic Acid (VPA, 2-propyl-pentanoic acid, monosodium salt). Towards this end, the human fibroblasts were incubated in DMEM/F12 supplemented with FBS 10% and L-glutamine supplemented with 1 mM VPA prior to infection (FIG. 12).

## COc1ccc(O)c(C(=O)c2ccc(C(=O)N[C@@H]3CCCNC[C@H]3NC(=O)c3cc(C)c(O)c(C)c3)cc2)c1F [Balanol-like-324 compound, N-{(3R,4R)-4-[4-(2-Fluoro-6-hydroxy-3-methoxy-benzoyl)-benzoylamino]-azepan-3-yl}-4-hydroxy-3,5-dimethyl-benzamide]
Human fibroblasts IMR90 [1]; Balanol-like-324 2 μM vs Fasudil 10 μM, Day 4, STDEV, n=3
  reproducibility of neurosphere generation versus Fasudil: better reproducibility
Human fibroblasts IMR90 [1]; Balanol-like-324 2 μM vs Fasudil 10 μM, Sox2, Bmi1, nestin GFP reporter, Day 4, n=3
  increase in efficiency of the neurospheres generation (GFP+ neurospheres bigger than 50 μm) versus Fasudil: ~1.9 fold
Human fibroblasts IMR90 [1]; FIG. 11, Rock kinase inhibitor in induction medium
  yield of GFP+ neurospheres: increases the yield

## O=S(=O)(c1cccc2cnccc12)N1CCCNCC1 [Fasudil, 1-(5-Isoquinolinesulfonyl)homopiperazine]
[2]
  neurosphere morphology: better morphology and clear and sharp borders
Human fibroblasts
  generation of neurospheres: generation of neurospheres (around 50 μm)

## CCCC(CCC)C(=O)[O-].[Na+] [VPA, 2-propyl-pentanoic acid, monosodium salt]
Human fibroblasts IMR90 [3]
  increase in number of GFP+ irNSCs per neurosphere: 2.1 fold
  number of neurospheres bigger than 50 μm: did not significantly affect

Source: US20160369234A1, “CONVERSION OF SOMATIC CELLS TO INDUCED REPROGRAMMED NEURAL STEM CELLS (IRNSCS)” (Hoffmann-La Roche Inc., priority 2010, published 2016)
